From ChEMBL document CHEMBL1201862, “PubChem BioAssay data set” (2004)
The source made the active and inactive calls.

Legend:
Hexokinase HKDC1 = molecular target: T1, Hexokinase HKDC1 (Homo sapiens, UniProt Q2TB90); test: HKDC1 hexokinase inhibitors, dose response, biochemical, W721R variant (AID 504729); type: functional
T1 sequence (Q2TB90 whole entry): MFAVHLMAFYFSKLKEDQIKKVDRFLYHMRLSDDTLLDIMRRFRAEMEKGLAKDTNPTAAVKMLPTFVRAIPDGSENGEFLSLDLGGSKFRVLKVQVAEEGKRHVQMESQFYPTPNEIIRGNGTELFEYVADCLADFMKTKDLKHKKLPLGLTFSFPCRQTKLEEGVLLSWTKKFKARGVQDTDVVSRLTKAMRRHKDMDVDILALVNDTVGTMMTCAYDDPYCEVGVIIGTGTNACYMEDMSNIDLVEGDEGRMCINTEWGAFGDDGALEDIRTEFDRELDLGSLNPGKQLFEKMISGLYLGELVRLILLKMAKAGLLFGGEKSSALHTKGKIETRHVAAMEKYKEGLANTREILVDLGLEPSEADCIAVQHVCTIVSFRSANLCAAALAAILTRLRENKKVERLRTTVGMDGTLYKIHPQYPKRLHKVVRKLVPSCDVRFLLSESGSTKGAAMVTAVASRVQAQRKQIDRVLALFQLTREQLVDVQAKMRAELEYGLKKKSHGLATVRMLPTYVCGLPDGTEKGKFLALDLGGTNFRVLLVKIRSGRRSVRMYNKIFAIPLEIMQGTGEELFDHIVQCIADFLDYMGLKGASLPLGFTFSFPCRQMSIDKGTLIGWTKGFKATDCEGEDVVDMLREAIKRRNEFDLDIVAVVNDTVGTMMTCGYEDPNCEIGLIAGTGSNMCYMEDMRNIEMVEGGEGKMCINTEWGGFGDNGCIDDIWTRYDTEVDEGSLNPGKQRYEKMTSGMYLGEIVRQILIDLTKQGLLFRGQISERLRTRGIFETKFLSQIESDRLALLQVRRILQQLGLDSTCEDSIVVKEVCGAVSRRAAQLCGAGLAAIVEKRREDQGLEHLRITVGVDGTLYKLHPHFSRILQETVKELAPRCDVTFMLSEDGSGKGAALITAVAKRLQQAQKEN

Estrogen receptor = molecular target: T2, Estrogen receptor (Homo sapiens, UniProt P03372);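 also: potency for inhibiting coactivator peptide recruitment to the receptor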
T2 sequence (P03372 whole entry): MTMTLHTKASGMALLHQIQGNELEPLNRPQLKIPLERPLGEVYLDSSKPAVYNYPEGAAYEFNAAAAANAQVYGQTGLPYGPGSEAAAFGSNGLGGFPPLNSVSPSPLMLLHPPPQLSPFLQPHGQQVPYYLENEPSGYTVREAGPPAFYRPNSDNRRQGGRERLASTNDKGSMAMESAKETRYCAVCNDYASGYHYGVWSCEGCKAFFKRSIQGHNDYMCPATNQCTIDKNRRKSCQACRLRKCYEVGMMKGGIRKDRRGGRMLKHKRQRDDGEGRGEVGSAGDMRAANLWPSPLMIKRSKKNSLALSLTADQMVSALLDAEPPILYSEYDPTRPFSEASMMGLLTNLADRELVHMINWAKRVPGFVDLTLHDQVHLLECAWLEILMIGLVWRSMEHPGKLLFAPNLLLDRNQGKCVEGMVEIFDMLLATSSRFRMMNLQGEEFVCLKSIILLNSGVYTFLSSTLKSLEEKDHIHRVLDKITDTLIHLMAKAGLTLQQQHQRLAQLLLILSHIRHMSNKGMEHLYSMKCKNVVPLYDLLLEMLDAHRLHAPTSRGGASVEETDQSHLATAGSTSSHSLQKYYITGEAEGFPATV

Estrogen receptor beta = Estrogen receptor beta (Homo sapiens, UniProt Q92731);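 also: recombinant ER-beta bound to coactivator SRC1 peptide in presence of estradiol agonist; inhibitors block coactivator peptide binding and lower the FRET signal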
[1] = growth suppression of PTEN-null colon cells, dose response, cell-based, HCT116 PTEN knockout (AID 1047); type: functional;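 also: HCT116 colon tumor cells with PTEN knocked out; cells exposed to compound for 60 hours before readout; potency for loss of cell viability measured by luminescence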
[2] = growth suppression of beta-catenin-knockout colon cells, dose response, cell-based, HCT116, human colon tumor (AID 1045); type: functional;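 also: HCT116 colon tumor cells with beta catenin knocked out; cells exposed to compound for 60 hours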
[3] = THP-1 cell cytotoxicity, dose response, cytotoxicity control for non-replicating M. tuberculosis project (AID 489025); type: functional
[4] = HepG2 cell cytotoxicity, dose response, cytotoxicity control for non-replicating M. tuberculosis project (AID 489018); type: functional; details: Mycobacterium tuberculosis
[5] = Vero E6 cell cytotoxicity, dose response, cytotoxicity control for non-replicating M. tuberculosis project, secondary assay (AID 492998); type: functional, VeroE6; details: Vero C1008
cells = type: functional
[6] = A cytotoxicity screen of small molecule inhibitors of the PhoP region in Salmonella typhi identified in the primary screen. [Related pubchem assays: 1850, 1864, 1985 ]; type: functional
[7] = molecular target: Glyceraldehyde-3-phosphate dehydrogenase (Homo sapiens, UniProt P04406)
[8] = molecular target: Alkaline phosphatase, placental type (Homo sapiens, UniProt P05187); test: PLAP enzyme inhibitors, confirmation, biochemical, luminescence (AID 1512); type: functional
[9] = molecular target: T3, Alkaline phosphatase, tissue-nonspecific isozyme (Homo sapiens, UniProt P05186); test: human TNAP enzyme inhibitors, SAR follow-up, biochemical, luminescent, dose response (AID 1056)
T3 sequence (P05186 whole entry): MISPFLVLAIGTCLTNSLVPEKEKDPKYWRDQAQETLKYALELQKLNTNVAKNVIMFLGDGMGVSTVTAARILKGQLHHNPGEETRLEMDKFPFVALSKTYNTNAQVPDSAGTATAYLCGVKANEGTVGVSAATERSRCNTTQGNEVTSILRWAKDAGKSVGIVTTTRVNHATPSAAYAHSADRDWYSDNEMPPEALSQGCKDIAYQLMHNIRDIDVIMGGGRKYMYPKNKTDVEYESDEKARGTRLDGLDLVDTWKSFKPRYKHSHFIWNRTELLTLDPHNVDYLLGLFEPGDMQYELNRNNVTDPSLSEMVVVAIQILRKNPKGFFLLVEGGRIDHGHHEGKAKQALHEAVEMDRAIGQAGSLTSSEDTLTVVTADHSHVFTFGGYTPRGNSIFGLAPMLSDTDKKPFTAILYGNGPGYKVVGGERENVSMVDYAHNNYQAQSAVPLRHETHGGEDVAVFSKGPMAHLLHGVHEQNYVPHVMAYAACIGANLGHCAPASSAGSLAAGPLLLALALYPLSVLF

[10] = molecular target: T4, Replicative DNA helicase DnaB (Mycobacterium tuberculosis, UniProt P9WMR3); test: DnaB intein splicing inhibitors, dose response, biochemical, cell-free fluorescence (AID 449749); type: functional
T4 sequence (P9WMR3 whole entry): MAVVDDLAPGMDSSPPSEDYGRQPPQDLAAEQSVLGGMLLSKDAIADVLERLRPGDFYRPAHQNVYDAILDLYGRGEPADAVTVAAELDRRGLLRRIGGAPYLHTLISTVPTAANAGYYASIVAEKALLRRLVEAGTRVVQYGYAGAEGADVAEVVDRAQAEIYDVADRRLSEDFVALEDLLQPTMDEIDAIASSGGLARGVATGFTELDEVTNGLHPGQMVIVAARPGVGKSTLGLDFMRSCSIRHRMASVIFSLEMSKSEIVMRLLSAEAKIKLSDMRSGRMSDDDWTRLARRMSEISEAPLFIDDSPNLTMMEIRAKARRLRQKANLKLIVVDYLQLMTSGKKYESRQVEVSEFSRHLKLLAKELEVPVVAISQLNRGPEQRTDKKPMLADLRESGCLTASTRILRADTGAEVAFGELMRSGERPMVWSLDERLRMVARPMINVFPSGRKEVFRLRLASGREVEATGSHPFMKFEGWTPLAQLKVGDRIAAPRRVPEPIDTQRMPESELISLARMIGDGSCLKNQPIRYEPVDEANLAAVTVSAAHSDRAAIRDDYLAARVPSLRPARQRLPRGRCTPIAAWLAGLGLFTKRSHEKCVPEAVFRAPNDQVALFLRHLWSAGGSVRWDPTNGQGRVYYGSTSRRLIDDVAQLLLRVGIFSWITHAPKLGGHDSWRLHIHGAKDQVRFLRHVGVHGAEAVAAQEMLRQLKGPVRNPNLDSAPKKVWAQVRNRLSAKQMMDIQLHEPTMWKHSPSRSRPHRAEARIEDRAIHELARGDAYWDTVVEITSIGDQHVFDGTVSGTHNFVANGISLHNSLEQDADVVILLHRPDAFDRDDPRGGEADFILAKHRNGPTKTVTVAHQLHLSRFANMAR

Protein RecA = molecular target: T5, Protein RecA (Mycobacterium tuberculosis, UniProt P9WHJ3); test: Fluorescence Cell-Free Homogeneous Dose Retest to Identify Inhibitors of RecA-Intein Splicing Activity. [Related pubchem assays (depositor defined):AID2097, AID2223, AID489010, AID492950]; type: functional
T5 sequence (P9WHJ3 whole entry): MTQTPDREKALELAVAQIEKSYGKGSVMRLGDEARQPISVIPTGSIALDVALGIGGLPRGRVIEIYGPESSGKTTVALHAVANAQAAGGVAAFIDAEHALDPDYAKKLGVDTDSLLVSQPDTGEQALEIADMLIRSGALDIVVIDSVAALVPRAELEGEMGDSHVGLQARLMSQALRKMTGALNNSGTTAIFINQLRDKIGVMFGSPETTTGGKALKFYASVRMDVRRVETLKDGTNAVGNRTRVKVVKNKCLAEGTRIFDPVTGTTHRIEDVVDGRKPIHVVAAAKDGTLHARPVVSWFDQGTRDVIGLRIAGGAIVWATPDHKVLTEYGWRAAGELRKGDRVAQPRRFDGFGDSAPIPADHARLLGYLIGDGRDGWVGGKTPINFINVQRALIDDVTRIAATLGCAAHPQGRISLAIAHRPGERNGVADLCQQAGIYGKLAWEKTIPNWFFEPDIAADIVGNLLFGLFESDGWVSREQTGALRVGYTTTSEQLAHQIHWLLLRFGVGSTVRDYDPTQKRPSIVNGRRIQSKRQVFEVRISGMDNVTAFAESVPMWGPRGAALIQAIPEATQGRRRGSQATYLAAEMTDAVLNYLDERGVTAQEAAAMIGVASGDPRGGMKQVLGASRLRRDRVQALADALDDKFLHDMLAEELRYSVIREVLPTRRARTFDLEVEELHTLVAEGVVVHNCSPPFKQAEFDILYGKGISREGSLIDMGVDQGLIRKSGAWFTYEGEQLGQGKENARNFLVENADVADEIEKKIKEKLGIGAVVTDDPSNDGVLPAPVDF

Wee1-like protein kinase = Wee1-like protein kinase (Homo sapiens, UniProt P30291); test: G2/M cell cycle arrest in HeLa, late-stage follow-up, mechanism study for Wee1 degradation inhibitor project, FACS, panel member Wee1 Degradation (AID 2088)
[11] = molecular target: G2/mitotic-specific cyclin-B1 (Homo sapiens, UniProt P14635); test: G2/M cell cycle arrest in HeLa, late-stage follow-up, mechanism study for Wee1 degradation inhibitor project, FACS, panel member Cyclin B Degradation (AID 2088)
Sequence of G2/mitotic-specific cyclin-B1 (P14635 whole entry): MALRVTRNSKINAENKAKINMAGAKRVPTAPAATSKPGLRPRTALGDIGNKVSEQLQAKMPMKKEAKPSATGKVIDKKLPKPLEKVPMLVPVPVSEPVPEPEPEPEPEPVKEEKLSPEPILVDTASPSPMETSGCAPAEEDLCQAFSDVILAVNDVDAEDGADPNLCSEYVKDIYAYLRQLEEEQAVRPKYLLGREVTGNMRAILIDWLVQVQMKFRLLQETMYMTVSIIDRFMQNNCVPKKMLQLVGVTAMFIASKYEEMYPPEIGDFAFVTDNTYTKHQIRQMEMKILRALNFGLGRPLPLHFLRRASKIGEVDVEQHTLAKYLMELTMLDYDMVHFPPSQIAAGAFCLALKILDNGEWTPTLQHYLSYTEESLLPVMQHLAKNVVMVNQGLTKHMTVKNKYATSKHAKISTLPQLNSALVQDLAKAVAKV

Sequence of Wee1-like protein kinase (P30291 whole entry): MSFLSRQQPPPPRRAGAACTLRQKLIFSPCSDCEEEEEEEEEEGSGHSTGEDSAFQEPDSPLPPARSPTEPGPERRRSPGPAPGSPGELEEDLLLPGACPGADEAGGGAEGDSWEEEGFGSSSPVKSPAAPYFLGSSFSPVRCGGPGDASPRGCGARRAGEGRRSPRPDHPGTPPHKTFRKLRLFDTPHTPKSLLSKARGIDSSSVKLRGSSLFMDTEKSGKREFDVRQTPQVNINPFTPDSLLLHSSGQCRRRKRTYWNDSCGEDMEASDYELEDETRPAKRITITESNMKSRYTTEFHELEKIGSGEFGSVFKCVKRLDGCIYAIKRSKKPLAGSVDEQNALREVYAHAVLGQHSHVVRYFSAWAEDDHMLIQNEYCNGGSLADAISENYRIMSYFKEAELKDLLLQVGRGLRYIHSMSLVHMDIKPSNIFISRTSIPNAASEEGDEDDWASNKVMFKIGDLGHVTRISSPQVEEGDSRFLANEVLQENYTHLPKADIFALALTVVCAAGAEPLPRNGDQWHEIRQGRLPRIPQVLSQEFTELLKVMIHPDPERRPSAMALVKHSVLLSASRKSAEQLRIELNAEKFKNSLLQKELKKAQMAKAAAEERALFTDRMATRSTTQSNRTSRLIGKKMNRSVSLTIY
Sequence of Glyceraldehyde-3-phosphate dehydrogenase (P04406 whole entry): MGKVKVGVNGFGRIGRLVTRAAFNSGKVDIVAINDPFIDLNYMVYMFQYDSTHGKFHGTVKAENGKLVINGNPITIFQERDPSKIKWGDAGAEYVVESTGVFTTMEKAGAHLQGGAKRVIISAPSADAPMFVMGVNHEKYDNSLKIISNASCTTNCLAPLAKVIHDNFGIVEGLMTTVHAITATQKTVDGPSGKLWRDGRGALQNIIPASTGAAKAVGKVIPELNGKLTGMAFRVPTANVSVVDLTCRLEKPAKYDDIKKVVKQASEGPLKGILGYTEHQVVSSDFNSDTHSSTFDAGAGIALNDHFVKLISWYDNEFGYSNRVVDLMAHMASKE
Sequence of Alkaline phosphatase, placental type (P05187 whole entry): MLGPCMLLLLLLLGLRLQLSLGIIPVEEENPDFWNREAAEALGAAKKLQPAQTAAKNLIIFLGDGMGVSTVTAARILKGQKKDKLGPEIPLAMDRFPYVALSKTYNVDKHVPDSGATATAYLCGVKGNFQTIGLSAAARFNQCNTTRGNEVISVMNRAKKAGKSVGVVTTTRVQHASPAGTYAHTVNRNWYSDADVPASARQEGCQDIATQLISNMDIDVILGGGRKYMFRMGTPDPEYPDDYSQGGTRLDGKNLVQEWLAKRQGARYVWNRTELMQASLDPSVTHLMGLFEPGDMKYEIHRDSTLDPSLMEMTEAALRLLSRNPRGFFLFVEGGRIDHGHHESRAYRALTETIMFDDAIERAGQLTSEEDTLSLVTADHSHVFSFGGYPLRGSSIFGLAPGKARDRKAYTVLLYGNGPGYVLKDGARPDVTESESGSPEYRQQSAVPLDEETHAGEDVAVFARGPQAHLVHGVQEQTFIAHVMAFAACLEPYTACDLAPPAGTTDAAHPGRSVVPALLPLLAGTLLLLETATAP
Sequence of Estrogen receptor beta (Q92731 whole entry): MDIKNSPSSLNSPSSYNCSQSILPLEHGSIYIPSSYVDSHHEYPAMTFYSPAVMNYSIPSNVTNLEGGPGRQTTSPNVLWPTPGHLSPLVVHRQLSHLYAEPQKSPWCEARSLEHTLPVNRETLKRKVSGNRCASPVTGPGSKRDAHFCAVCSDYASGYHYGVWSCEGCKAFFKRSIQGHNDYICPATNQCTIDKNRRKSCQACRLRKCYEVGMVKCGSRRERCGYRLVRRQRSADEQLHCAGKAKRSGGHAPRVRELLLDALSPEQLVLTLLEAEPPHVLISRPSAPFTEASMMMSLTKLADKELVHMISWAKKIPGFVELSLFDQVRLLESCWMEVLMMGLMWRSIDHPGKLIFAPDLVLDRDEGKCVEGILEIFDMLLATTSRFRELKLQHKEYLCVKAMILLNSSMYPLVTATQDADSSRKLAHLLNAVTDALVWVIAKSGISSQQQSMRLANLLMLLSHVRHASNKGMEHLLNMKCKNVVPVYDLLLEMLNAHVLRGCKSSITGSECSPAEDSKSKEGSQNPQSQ

Structure (SMILES): Cc1nc2c(c(=O)c3ccccc3n2C)c(=O)n1-c1ccc(F)cc1
- IC50 (Hexokinase HKDC1): 8.25 µM (active)

Structure (SMILES): CCOC(=O)c1c(C)oc2c1c(C(c1cccnc1)N1CCCCC1)c(O)c1ccccc12 (stereo not drawn)
- IC50 (Estrogen receptor): > 50 µM (not active)
- IC50 (Estrogen receptor beta): > 50 µM (not active)

Structure (SMILES): CCOc1cc(CNC(C)(C)CO)cc(Br)c1OCc1ccc(Cl)cc1Cl
- EC50 [1]: 7.54 µM (active)
- EC50 [2]: 6.52 µM (active)
- CC50 [3]: 13.4 µM (active)
- CC50 [4]: 13.7 µM (active)
- CC50 [5]: 7.44 µM (active)
- IC50 (cells): 10.5 µM (active)

Structure (SMILES): COc1ccc2nc(NC(=O)C3CC(=O)N(c4ccccc4)C3)sc2c1 (stereo not drawn)
- EC50 [6]: > 50 µM (active)

Structure (SMILES): COc1ccccc1-c1nnc(SC)[nH]1
- IC50 [7]: > 100 µM (not active)
- IC50 [8]: > 100 µM (inactive)
- IC50 [9]: 7.95 µM (active)

Structure (SMILES): CN1CCc2nc(SCC(=O)Nc3ccc(F)cc3)c(C#N)cc2C1
- IC50 (Estrogen receptor): > 50 µM (not active)
- AC50 [10]: > 380 µM (inactive)
- EC50 (Protein RecA): 38 µM (active)

Structure (SMILES): Cc1ccc(NC(=O)OCc2cccs2)cc1
- EC50 [6]: > 50 µM (active)

Structure (SMILES): OCCSc1n[nH]c(-c2ccccc2)n1
- IC50 [7]: > 100 µM (not active)
- IC50 [8]: > 100 µM (inactive)
- IC50 [9]: 16.2 µM (active)

Structure (SMILES): Cc1cc(C)n2cc(CSc3nnc(-c4ccccc4)c(-c4ccccc4)n3)nc2n1
- IC50 (Hexokinase HKDC1): 12.5 µM (active)

Structure (SMILES): [O-][n+]1onc2c3cc(-c4ccccc4)[nH]c3ccc21
- EC50 (Wee1-like protein kinase): > 6.19 µM (active)
- EC50 [11]: > 55.7 µM (inactive)

Structure (SMILES): Cc1cc(O)nc(-n2nc(C)cc2NC(=O)Cc2ccccc2)n1
- EC50 (Wee1-like protein kinase): > 49.7 µM (inactive)
- EC50 [11]: > 49.7 µM (inactive)

Structure (SMILES): Cc1cc(O)nc(-n2nc(C)cc2NC(=O)c2cccc(Cl)c2)n1
- EC50 (Wee1-like protein kinase): > 49.7 µM (inactive)
- EC50 [11]: > 49.7 µM (inactive)

Structure (SMILES): CC1(C)N=C(N)N=C(Nc2cccc(Br)c2)N1
- EC50 [6]: > 50 µM (active)
